The test system of test [1] is BRL-AG2 cells. The test is described as follows: Insect cell-based marker ligand assay (EcR gene switch, β-galactosidase reporter), BRL-AG2 cells. The following applies: 48 h.
Test [2] deals with L57 cells. The test is described as follows: Insect cell-based marker ligand assay (EcR gene switch, β-galactosidase reporter), L57 cells. The settings on record: Drosophila melanogaster, 48 h, read-out: L57 Cells (Fold Induction).
[3] abbreviates: read-out: BRL-AG2 (Fold Induction).
Where [4] appears, read: read-out: BRL-AG2 Cells (Fold Induction).

On to `COc1cccc(C(=O)NN(C(=O)c2cc(C)cc(C)c2)C(C)(C)C)c1C` [Marker, N′-tert-butyl-N′-(3 ,5-dimethylbenzoyl)-3-methoxy-2-methylbenzohydrazide], for which, in test [1] (setting [3]), the fold induction at 0.12 µg/mL was 16, the fold induction at 1.2 µg/mL was found to be 21 and the fold induction at 12 µg/mL was 31. Also, in test [1] (setting [4]), the fold induction at 0.07 µg/mL was determined as 151, the fold induction at 0.69 µg/mL came out at 182 and the fold induction at 6.95 µg/mL came to 202. Besides, in test [2], the fold induction at 0.07 µg/mL was 27, the fold induction at 0.12 µg/mL is 1, the fold induction at 0.69 µg/mL came out at 46 and the fold induction at 1.2 µg/mL came out at 23. Besides, in test [2], the fold induction at 6.95 µg/mL was determined as 63 and the fold induction at 12 µg/mL was determined as 30.

Source of the values: US6576422B1, “Method for identifying products employing gene expression” (Rohm and Haas Company, priority 2000, dated 2003).
